Assay results published in patent US20100280600A1, “DUAL DRUG STENT” (priority 2009, published 2010).

Assays:
[1] = Cumulative in vivo drug release from reservoir dual drug eluting stent; settings: 30 days; compared to cilostazol
Source text: Referring to FIG. 29, there is illustrated the cumulative in vivo drug release percentages for each drug over a thirty day period. Curve 2902 represents the profile for cilostazol while curve 2904 represents the profile for sirolimus. FIG. 30 is a graphical representation of the amount of each drug, in micrograms, released in vivo. Curve 3002 represents the profile for cilostazol while curve 3004 represents the profile for sirolimus. The curves in the figures illustrate that both the drugs elute independently of each other with minimal or substantially no interaction. […] Since the amount of drug (by weight) is different for the drugs in their respective reservoirs, the total amount of drug released at thirty (30) days was higher for sirolimus as compared to cilostazol.

[2] = Porcine drug elution PK study of dual drug eluting coating; type: in vivo; settings: after 8 days of implantation, FIG. 11 stent (sirolimus + cilostazol in one EVA/BMA layer, 100 μg BMA overcoat)
Source text: Another critical parameter for the performance of the thrombus resistance of a device coated with cilostazol is the duration of the drug release from the coating. This is of particular significance in the two weeks after device implantation. In the porcine drug elution PK studies of the dual drug eluting coating, both cilostazol and sirolius were slowly released from the coating, resulting in a sustained drug release profile. The purpose of the porcine PK study is to assess the local pharmacokinetics of a drug eluting stent at a given implantation time. Normally three stents are implanted in three different coronary arteries in a pig for a given time point and then retrieved for total drug recovery analysis. The stents are retrieved at predetermined time points; namely, 1, 3 and 8 days. The stents are extracted and the total amount of drug remaining on the stents is determined by analysis utilizing HPLC (high performance liquid chromatography) for total drug amount. The difference between the original amount of drug on the stent and the amount of drug retrieved at a given time represents the amount of drug released in that period. The continuous release of drug into surrounding arterial tissue is what prevents the neointimal growth and restenosis in the coronary artery. A normal plot represents the percentage of total drug released (%, y-axis) vs. time of implantation (day, x-axis). […]

[3] = In vitro release kinetics of sirolimus and cilostazol from coated stents; type: physicochemical

Structure (SMILES)	total amount of drug released (by weight) [1]	drug remained in the drug coating [2] [%]	in vitro drug release rate ([3]; 200 μg BMA diffusion overcoat (FIG. 4) versus 100 μg (FIG. 6))	in vitro release ([3]; FIG. 11 stent (sirolimus + cilostazol in one EVA/BMA layer, 100 μg BMA overcoat), FIG. 10) [%]
CO[C@H]1C[C@@H]2CC[C@@H](C)[C@@](O)(O2)C(=O)C(=O)N2CCCC[C@H]2C(=O)O[C@H]([C@H](C)C[C@@H]2CC[C@@H](O)[C@H](OC)C2)CC(=O)[C@H](C)/C=C(\C)[C@@H](O)[C@@H](OC)C(=O)[C@H](C)C[C@H](C)/C=C/C=C/C=C/1C [rapamycin]	higher	~80	–	–
O=C1CCc2cc(OCCCCc3nnnn3C3CCCCC3)ccc2N1 [cilostazol, 6[4-(1-cyclohexyl-1H-tetrazol-5-yl)-butoxy]-3,4-dihydro-2-(1H)-quinolinone]	–	~80	comparatively slower	~35
